Reference: patent US12521393B2, “Cytotoxicity targeting chimeras for CCR2-expressing cells” (GLAXOSMITHKLINE INTELLECTUAL PROPERTY DEVELOPMENT LIMITED, priority 2021, dated 2026)

test system: endogenous target monocytes in human PBMC; experiment: PBMC ex vivo monocyte depletion flow cytometry assay (Example 200); type: cell-based; settings: with anti-cotinine antibody (SEQ ID NO: 11/12), 18-24 hours, EC50 in molar, read-out: Ex Vivo Depletion Assay pEC50 (converted)
In short: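 Monocyte depletion is reported as pEC50, averaged or given individually across runs, and read by flow cytometry staining CD45, CD14 and CD4 with a viability dye. Compounds, diluted four-fold over 11 points from 1 mM DMSO stocks, were combined with 30 μg/mL Fc-enhanced anti-cotinine antibody and human PBMC, then incubated 18-24 h at 37° C.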

**Q.** CCN1C(=O)C[C@H](C(=O)NCCOCCOCCOCCC(=O)N[C@H]2CC[C@@H](C(=O)N[C@@H]3C[C@H](N(C)C(C)C)CC[C@@H]3N3CC[C@H](Nc4ncnc5ccc(C(F)(F)F)cc45)C3=O)CC2)[C@H]1c1cccnc1 [Example 34, (2S,3S)-1-ethyl-N-(2-(2-(2-(3-((cis-4-(((1R,2S,5R)-5-(isopropyl(methyl)amino)-2-((S)-2-oxo-3-((6-(trifluoromethyl)quinazolin-4-yl)amino)pyrrolidin-1-yl)cyclohexyl)carbamoyl)cyclohexyl)amino)-3-oxopropoxy)ethoxy)ethoxy)ethyl)-5-oxo-2-(pyridin-3-yl)pyrrolidine-3-carboxamide] was tested. Which EC50 did it give?
**A.** Its EC50 is 1.58 nM.

**Q.** How did the EC50 turn out when CCN1C(=O)C[C@H](C(=O)NCCOCCOCCOCCC(=O)N[C@H]2CC[C@@H](C(=O)N[C@@H]3C[C@H](NC(C)(C)C)CC[C@@H]3N3CC[C@H](Nc4ncnc5ccc(C(F)(F)F)cc45)C3=O)CC2)[C@H]1c1cccnc1 [Example 35, (2S,3S)-N-(2-(2-(2-(3-(((1S,4s)-4-(((1R,2S,5R)-5-(tert-butylamino)-2-((S)-2-oxo-3-((6-(trifluoromethyl)quinazolin-4-yl)amino)pyrrolidin-1-yl)cyclohexyl)carbamoyl)cyclohexyl)amino)-3-oxopropoxy)ethoxy)ethoxy)ethyl)-1-ethyl-5-oxo-2-(pyridin-3-yl)pyrrolidine-3-carboxamide] was run?
**A.** The EC50 was 0.631 nM.

**Q.** CC(C)N(C)[C@@H]1CC[C@H](N2CC[C@H](Nc3ncnc4ccc(C(F)(F)F)cc34)C2=O)[C@H](NC(=O)C2CCC(NC(=O)CCOCCNC(=O)CCOCCNC(=O)[C@H]3CC(=O)N(C)[C@@H]3c3cccnc3)CC2)C1 (stereo partly drawn) [Example 48, (2S,3S)-N-(2-(3-((2-(3-(((1R,4r)-4-(((1R,2S,5R)-5-(Isopropyl(methyl)amino)-2-((S)-2-oxo-3-((6-(trifluoromethyl)quinazolin-4-yl)amino)pyrrolidin-1-yl)cyclohexyl)carbamoyl)cyclohexyl)amino)-3-oxopropoxy)ethyl)amino)-3-oxopropoxy)ethyl)-1-methyl-5-oxo-2-(pyridin-3-yl)pyrrolidine-3-carboxamide] was tested. Which EC50 did it give?
**A.** Its EC50 is 2 nM.

**Q.** Which EC50 does the source give for CC(C)N(C)[C@@H]1CC[C@H](N2CC[C@H](Nc3ncnc4ccc(C(F)(F)F)cc34)C2=O)[C@H](NC(=O)[C@H]2C[C@@H](NC(=O)CCOCCOCCNC(=O)CCNC(=O)[C@H]3CC(=O)N(C)[C@@H]3c3cccnc3)C2)C1 [Example 49, (2S,3S)-N-(3-((2-(2-(3-(((1S,3s)-3-(((1R,2S,5R)-5-(Isopropyl(methyl)amino)-2-((S)-2-oxo-3-((6-(trifluoromethyl)quinazolin-4-yl)amino)pyrrolidin-1-yl)cyclohexyl)carbamoyl)cyclobutyl)amino)-3-oxopropoxy)ethoxy)ethyl)amino)-3-oxopropyl)-1-methyl-5-oxo-2-(pyridin-3-yl)pyrrolidine-3-carboxamide] here?
**A.** The EC50 was 0.501 nM.

**Q.** With CC(C)N(C)[C@@H]1CC[C@H](N2CC[C@H](Nc3ncnc4ccc(C(F)(F)F)cc34)C2=O)[C@H](NC(=O)[C@H]2CC[C@@H](NC(=O)CCCO[C@H]3CC[C@H](NC(=O)CCNC(=O)[C@@H]4CC(=O)N(C)[C@H]4c4cccnc4)CC3)CC2)C1 [Example 52, (2S,3S)-N-(3-(((1R,4S)-4-(4-(((1S,4S)-4-(((1R,2S,5R)-5-(Isopropyl(methyl)amino)-2-((S)-2-oxo-3-((6-(trifluoromethyl)quinazolin-4-yl)amino)pyrrolidin-1-yl)cyclohexyl)carbamoyl)cyclohexyl)amino)-4-oxobutoxy)cyclohexyl)amino)-3-oxopropyl)-1-methyl-5-oxo-2-(pyridin-3-yl)pyrrolidine-3-carboxamide] as the compound, how does the EC50 read?
**A.** The EC50 was 0.2 nM.

**Q.** CC(C)N(C)[C@@H]1CC[C@H](N2CC[C@H](Nc3ncnc4ccc(C(F)(F)F)cc34)C2=O)[C@H](NC(=O)[C@H]2CC[C@H](NC(=O)CCOC[C@H]3CC[C@H](COCCNC(=O)[C@H]4CC(=O)N(C)[C@@H]4c4cccnc4)CC3)CC2)C1 [Example 53, (2S,3S)-N-(2-(((1R,4S)-4-((3-(((1R,4R)-4-(((1R,2S,5R)-5-(Isopropyl(methyl)amino)-2-((S)-2-oxo-3-((6-(trifluoromethyl)quinazolin-4-yl)amino)pyrrolidin-1-yl)cyclohexyl)carbamoyl)cyclohexyl)amino)-3-oxopropoxy)methyl)cyclohexyl)methoxy)ethyl)-1-methyl-5-oxo-2-(pyridin-3-yl)pyrrolidine-3-carboxamide] was tested. Which EC50 did it give?
**A.** Its EC50 is 0.631 nM.

**Q.** CC(C)N(C)[C@@H]1CC[C@H](N2CC[C@H](Nc3ncnc4ccc(C(F)(F)F)cc34)C2=O)[C@H](NC(=O)[C@H]2CC[C@H](NC(=O)CCCOC[C@H]3CC[C@@H](COCCNC(=O)[C@H]4CC(=O)N(C)[C@@H]4c4cccnc4)CC3)CC2)C1 [Example 57, (2S,3S)-N-(2-(((1S,4R)-4-((4-(((1R,4R)-4-(((1R,2S,5R)-5-(Isopropyl(methyl)amino)-2-((S)-2-oxo-3-((6-(trifluoromethyl)quinazolin-4-yl)amino)pyrrolidin-1-yl)cyclohexyl)carbamoyl)cyclohexyl)amino)-4-oxobutoxy)methyl)cyclohexyl)methoxy)ethyl)-1-methyl-5-oxo-2-(pyridin-3-yl)pyrrolidine-3-carboxamide] was tested. Which EC50 did it give?
**A.** Its EC50 is 1.58 nM.

**Q.** With CC(C)N(C)[C@@H]1CC[C@H](N2CC[C@H](Nc3ncnc4ccc(C(F)(F)F)cc34)C2=O)[C@H](NC(=O)[C@H]2CC[C@@H](CC(=O)CCCOC[C@H]3CC[C@H](COCCNC(=O)[C@H]4CC(=O)N(C)[C@@H]4c4cccnc4)CC3)CC2)C1 [Example 60, (2S,3S)-N-(2-(((1R,4S)-4-(((5-((1S,4S)-4-(((1R,2S,5R)-5-(Isopropyl(methyl)amino)-2-((S)-2-oxo-3-((6-(trifluoromethyl)quinazolin-4-yl)amino)pyrrolidin-1-yl)cyclohexyl)carbamoyl)cyclohexyl)-4-oxopentyl)oxy)methyl)cyclohexyl)methoxy)ethyl)-1-methyl-5-oxo-2-(pyridin-3-yl)pyrrolidine-3-carboxamide] as the compound, how does the EC50 read?
**A.** Its EC50 is 0.631 nM.

**Q.** Which EC50 does the source give for CC(C)N(C)[C@@H]1CC[C@H](N2CC[C@H](Nc3ncnc4ccc(C(F)(F)F)cc34)C2=O)[C@H](NC(=O)CCNC(=O)CCCOC[C@H]2CC[C@@H](COCCNC(=O)[C@H]3CC(=O)N(C)[C@@H]3c3cccnc3)CC2)C1 [Example 62, (2S,3S)-N-(2-(((1S,4R)-4-((4-((3-(((1R,2S,5R)-5-(Isopropyl(methyl)amino)-2-((S)-2-oxo-3-((6-(trifluoromethyl)quinazolin-4-yl)amino)pyrrrolidin-1-yl)cyclohexyl)amino)-3-oxopropyl)amino)-4-oxobutoxy)methyl)cyclohexyl)methoxy)ethyl)-1-methyl-5-oxo-2-(pyridin-3-yl)pyrrolidine-3-carboxamide] here?
**A.** Its EC50 is 0.501 nM.

**Q.** Which EC50 does the source give for CC(C)N(C)[C@@H]1CC[C@H](N2CC[C@H](Nc3ncnc4ccc(C(F)(F)F)cc34)C2=O)[C@H](NC(=O)[C@H]2CC[C@@H](NC(=O)CCOCCOCCNC(=O)CNC(=O)[C@H]3CC(=O)N(C)[C@@H]3c3cccnc3)CC2)C1 [Example 63, (2S,3S)-N-(2-((2-(2-(3-(((1S,4s)-4-(((1R,2S,5R)-5-(Isopropyl(methyl)amino)-2-((S)-2-oxo-3-((6-(trifluoromethyl)quinazolin-4-yl)amino)pyrrolidin-1-yl)cyclohexyl)carbamoyl)cyclohexyl)amino)-3-oxopropoxy)ethoxy)ethyl)amino)-2-oxoethyl)-1-methyl-5-oxo-2-(pyridin-3-yl)pyrrolidine-3-carboxamide] here?
**A.** Its EC50 is 0.631 nM.

**Q.** CC(C)N(C)[C@@H]1CC[C@H](N2CC[C@H](Nc3ncnc4ccc(C(F)(F)F)cc34)C2=O)[C@H](NC(=O)CCOCCOCCNC(=O)CCOCCOCCNC(=O)[C@H]2CC(=O)N(C)[C@@H]2c2cccnc2)C1 [Example 76, (2S,3S)-N-(19-(((1R,2S,5R)-5-(Isopropyl(methyl)amino)-2-((S)-2-oxo-3-((6-(trifluoromethyl)quinazolin-4-yl)amino)pyrrolidin-1-yl)cyclohexyl)amino)-9,19-dioxo-3,6,13,16-tetraoxa-10-azanonadecyl)-1-methyl-5-oxo-2-(pyridin-3-yl)pyrrolidine-3-carboxamide] was tested. Which EC50 did it give?
**A.** The EC50 was 1.26 nM.

**Q.** CC(C)N(C)[C@@H]1CC[C@H](N2CC[C@H](Nc3ncnc4ccc(C(F)(F)F)cc34)C2=O)[C@H](NC(=O)[C@H]2CC[C@@H](NC(=O)COCCNC(=O)COCCNC(=O)[C@H]3CC(=O)N(C)[C@@H]3c3cccnc3)CC2)C1 [Example 99, (2S,3S)-N-(2-(2-((2-(2-(((1S,4s)-4-(((1R,2S,5R)-5-(Isopropyl(methyl)amino)-2-((S)-2-oxo-3-((6-(trifluoromethyl)quinazolin-4-yl)amino)pyrrolidin-1-yl)cyclohexyl)carbamoyl)cyclohexyl)amino)-2-oxoethoxy)ethyl)amino)-2-oxoethoxy)ethyl)-1-methyl-5-oxo-2-(pyridin-3-yl)pyrrolidine-3-carboxamide] was tested. Which EC50 did it give?
**A.** Its EC50 is 0.794 nM.

**Q.** CC(C)N(C)[C@@H]1CC[C@H](N2CC[C@H](Nc3ncnc4ccc(C(F)(F)F)cc34)C2=O)[C@H](NC(=O)CCOCCNC(=O)COCCNC(=O)COCCNC(=O)[C@H]2CC(=O)N(C)[C@@H]2c2cccnc2)C1 [Example 102, (2S,3S)-N-(18-(((1R,2S,5R)-5-(Isopropyl(methyl)amino)-2-((S)-2-oxo-3-((6-(trifluoromethyl)quinazolin-4-yl)amino)pyrrolidin-1-yl)cyclohexyl)amino)-5,11,18-trioxo-3,9,15-trioxa-6,12-diazaoctadecyl)-1-methyl-5-oxo-2-(pyridin-3-yl)pyrrolidine-3-carboxamide] was tested. Which EC50 did it give?
**A.** The EC50 was 0.316 nM.

**Q.** Which EC50 does the source give for CC(C)N(C)[C@@H]1CC[C@H](N2CC[C@H](Nc3ncnc4ccc(C(F)(F)F)cc34)C2=O)[C@H](NC(=O)CCOCCNC(=O)CCOCCNC(=O)COCCNC(=O)[C@H]2CC(=O)N(C)[C@@H]2c2cccnc2)C1 [Example 105, (2S,3S)-N-(19-(((1R,2S,5R)-5-(Isopropyl(methyl)amino)-2-((S)-2-oxo-3-((6-(trifluoromethyl)quinazolin-4-yl)amino)pyrrolidin-1-yl)cyclohexyl)amino)-5,12,19-trioxo-3,9,16-trioxa-6,13-diazanonadecyl)-1-methyl-5-oxo-2-(pyridin-3-yl)pyrrolidine-3-carboxamide] here?
**A.** Its EC50 is 0.398 nM.
